Row | melting point | Compound
1 | 150 to 151 °C | CN1CC(C(=O)c2cnn(Cc3ccc(F)cc3)c2)=C(O)C1=O
2 | 129.5 to 131 °C | CC(C)N1CC(C(=O)c2cnn(Cc3ccc(F)cc3)c2)=C(O)C1=O
3 | 174 to 178 °C | CC(C)N1CC(C(=O)c2cnc(Cc3ccc(F)cc3)o2)=C(O)C1=O
4 | 209 to 210 °C | CN1CC(C(=O)c2nc(Cc3ccc(F)cc3)co2)=C(O)C1=O
5 | 143 to 145 °C | CN1CC(C(=O)c2cc(Cc3ccc(F)cc3)co2)=C(O)C1=O
6 | 134 to 135 °C | COc1cc(F)ccc1Cc1ccc(C(=O)C2=C(O)C(=O)N(C)C2)o1
7 | 160 to 161 °C | COc1cc(Cc2ccc(C(=O)C3=C(O)C(=O)N(C(C)C)C3)o2)ccc1F
8 | 164 to 166 °C | COc1cc(Cc2ccc(C(=O)C3=C(O)C(=O)N(C)C3)o2)ccc1F
9 | 162 to 163 °C | CC(C)N1CC(C(=O)c2ccc(Cc3ccccc3)o2)=C(O)C1=O
10 | 116 to 118 °C | CN1CC(C(=O)c2ccc(Cc3ccccc3)o2)=C(O)C1=O
11 | 175 to 176 °C | CN1CC(C(=O)c2oc(C3CCCCC3)cc2Cc2ccc(F)cc2)=C(O)C1=O
12 | 140 to 141 °C | CCC(CC)N1CC(C(=O)c2ccc(Cc3ccc(F)cc3)o2)=C(O)C1=O
13 | 255 to 258 °C (dec.) | CN1CC(C(=O)c2cc(C(=O)O)c(Cc3ccc(F)cc3)o2)=C(O)C1=O
14 | 181 to 184 °C | CN1CC(C(=O)c2cc(C(=O)NCc3ccccc3)c(Cc3ccc(F)cc3)o2)=C(O)C1=O
15 | 120 to 122 °C | CC(C)N1C(=O)C(O)=C(C(=O)c2ccc(Cc3ccc(F)cc3)o2)C1C (stereo not shown)
16 | 95 to 96.5 °C | C=CCN1CC(C(=O)c2ccc(Cc3ccc(F)cc3)o2)=C(O)C1=O
17 | 129 to 130 °C | O=C(C1=C(O)C(=O)N(Cc2ccccc2)C1)c1ccc(Cc2ccc(F)cc2)o1
18 | 132 to 133 °C | CCC(O)CN1CC(C(=O)c2ccc(Cc3ccc(F)cc3)o2)=C(O)C1=O (stereo not shown)
19 | 171 °C | CCCC(O)CN1CC(C(=O)c2ccc(Cc3ccc(F)cc3)o2)=C(O)C1=O (stereo not shown)
20 | 171 to 172 °C | CN1CC(C(=O)c2ccoc2Cc2ccc(F)cc2)=C(O)C1=O
21 | 195 to 196 °C | O=C(C1=C(O)C(=O)N(CCO)C1)c1occc1Cc1ccc(F)cc1
22 | 170 °C | COCCN1CC(C(=O)c2occc2Cc2ccc(F)cc2)=C(O)C1=O
23 | 208 to 210 °C | O=C(C1=C(O)C(=O)N(CC(O)CO)C1)c1occc1Cc1ccc(F)cc1 (stereo not shown)
24 | 154 to 156 °C | Cc1cc(Cc2ccc(F)cc2)c(C(=O)C2=C(O)C(=O)N(C)C2)o1

Row | melting point | Compound
25 | 157 to 160 °C | CN1CC(C(=O)c2oc(Cc3ccc(F)cc3)cc2Cc2ccc(F)cc2)=C(O)C1=O
26 | 159 to 161 °C | CC(C)N1CC(C(=O)c2oc(Cc3ccc(F)cc3)cc2Cc2ccc(F)cc2)=C(O)C1=O
27 | 179 to 181 °C | CN1CC(C(=O)c2oc(C(C)(C)C)cc2Cc2ccc(F)cc2)=C(O)C1=O
28 | 242 to 245 °C | Cc1ccc(-c2cc(Cc3ccc(F)cc3)c(C(=O)C3=C(O)C(=O)N(C)C3)o2)cc1
29 | 148 to 150 °C | CC(C)(C)c1cc(Cc2ccc(F)cc2)c(C(=O)C2=C(O)C(=O)N(C3CC3)C2)o1
30 | 221 to 223 °C | CN1CC(C(=O)c2ccc(Cc3ccc(F)cc3)[nH]2)=C(O)C1=O
31 | 265 to 267 °C | CN1CC(C(=O)c2c[nH]cc2Cc2ccc(F)cc2)=C(O)C1=O
32 | 223 to 225 °C | CN1CC(c2cnc(Cc3ccc(F)cc3)cn2)=C(O)C1=O
33 | 214 to 216 °C | CN1CC(c2ncc(CCc3ccc(F)cc3)s2)=C(O)C1=O
34 | 222 to 224 °C | CN1CC(c2ncc(Cc3ccc(F)cc3)s2)=C(O)C1=O
35 | 212 to 214 °C | CC(C)N1CC(c2ncc(Cc3ccc(F)cc3)s2)=C(O)C1=O
36 | 240 to 241 °C | CC(C)c1ccccc1COc1cc(C2=C(O)C(=O)N(C)C2)ncn1
37 | 225 to 228 °C | CN1CC(c2cc(CCc3ccc(F)cc3)ncn2)=C(O)C1=O
38 | 181 to 183 °C | CC(C)N1CC(c2cc(C(Cc3ccc(F)cc3)Cc3ccc(F)cc3)ncn2)=C(O)C1=O
39 | 200 to 202 °C | CN1CC(c2ccc(Oc3ccccc3)cn2)=C(O)C1=O
40 | 181 to 183 °C | CC(C)N1CC(c2ccc(Oc3ccccc3)cn2)=C(O)C1=O
41 | 178 to 179 °C | CC(C)N1CC(c2ccc(Oc3ccc(F)cc3)cn2)=C(O)C1=O
42 | 228 to 230 °C | CN1CC(c2ccc([S+]([O-])c3ccc(F)cc3)cn2)=C(O)C1=O (stereo not shown)
43 | 163 to 165 °C | CN1CC(c2ncc(Cc3ccc(F)cc3)cn2)=C(O)C1=O
44 | 207 to 208 °C | CN1CC(c2ncc(Oc3ccccc3)cn2)=C(O)C1=O
45 | 230 to 232 °C | CN1CC(c2ncc(Oc3ccc(F)cc3)cn2)=C(O)C1=O
46 | 182 to 183 °C | CCC(CC)N1CC(c2cc(CCc3ccccc3)ncn2)=C(O)C1=O
47 | 219 to 221 °C | CC(C)N1CC(c2ncc(OCc3ccc(F)cc3)cn2)=C(O)C1=O
48 | 118 to 119 °C | CN1CC(c2nccc(CCc3ccccc3)n2)=C(O)C1=O

Row | melting point | Compound
49 | 220 to 225 °C | CN1CC(c2ccc(Oc3ccccc3)nn2)=C(O)C1=O
50 | 203 to 205 °C | CC(C)N1CC(c2ccc(Oc3ccccc3)nn2)=C(O)C1=O
51 | 204 to 206 °C | CC(C)N1CC(c2ccc(Oc3ccc(F)cc3)nn2)=C(O)C1=O
52 | 203 to 205 °C | CN1CC(c2cc(CCc3ccccc3)cnn2)=C(O)C1=O
53 | 233 to 235 °C | CN1CC(c2cnc(Oc3ccccc3)cn2)=C(O)C1=O
54 | 190 to 192 °C | CCOC(=O)c1oc2ccc(OCc3ccc(F)cc3)cc2c(=O)c1O
55 | 264 to 266 °C | Cn1cnc(-c2oc3cccc(OCc4ccc(F)cc4)c3c(=O)c2O)n1
56 | 254 to 256 °C | O=c1c(O)c(-c2nc[nH]n2)oc2cccc(OCc3ccc(F)cc3)c12
57 | 252 to 254 °C | O=c1c(O)c(-c2ncccn2)oc2cccc(OCc3ccc(F)cc3)c12
58 | 192 to 193 °C | Cn1ncnc1-c1oc2cccc(CCc3ccc(F)cc3)c2c(=O)c1O
59 | 260 to 262 °C | O=c1c(O)c(-c2ncn(Cc3ccc(F)cc3)n2)oc2ccccc12
60 | 235 to 236 °C | O=C(NCc1ccc(F)cc1)c1oc2ccccc2c(=O)c1O
61 | 226 to 227 °C | O=C(c1ccc(Cc2ccc(F)cc2)o1)c1oc2ccccc2c(=O)c1O
62 | 222 °C | Cn1c(-c2nnc(Cc3ccc(F)cc3)o2)c(O)c(=O)c2ccccc21
63 | 147 to 148 °C | COCc1cc(=O)c(O)c(C(=O)c2ccc(Cc3ccc(F)cc3)o2)o1
64 | 174 to 176 °C | COC(=O)c1cc(=O)c(O)c(C(=O)c2ccc(Cc3ccc(F)cc3)o2)o1
65 | 146 to 148 °C | O=C(c1ccc(Cc2ccc(F)cc2)o1)c1oc(C(=O)N2CCCCC2)cc(=O)c1O
66 | 190 to 194 °C (dec.) | N#Cc1cc(=O)c(O)c(C(=O)c2ccc(Cc3ccc(F)cc3)o2)o1
67 | 255 to 256 °C | Cc1nc(=O)c(O)c(-c2ccc(Oc3ccc(F)cc3)cn2)[nH]1
68 | 283 to 286 °C | Cc1nc(=O)c(O)c(-c2nnc(Cc3ccc(F)cc3)o2)[nH]1
69 | 110 to 111 °C | Cn1c(C(=O)c2ccc(Cc3ccc(F)cc3)o2)c(O)c(=O)n1C
70 | 166 to 168 °C | O=C1NCCC(C(=O)c2ccc(Cc3ccc(F)cc3)o2)=C1O

Source: patent US9572813B2, “Antiviral agent” (SHIONOGI & CO., LTD., priority 2001, dated 2017)
